Patent US20080200393A1, “Method and Composition For Treating Angiogenesis and For Preventing Cancer Progression and Metastasis Comprising a Prostate Secretory Protein (Psp94) Family Member” (Ambrillia Biopharma Inc., priority 2004, published 2008)
Where no end group is shown, it is not given here. The star is where a group is joined. Acm = CC(=O)NC*

Experiments:
ERK [1] = assay: Induced ERK phosphorylation in HUVEC (Western blot); type: cell-based, Human
Description: Cell culture. Human umbilical vein endothelial cells (HUVEC) and pulmonary aortic smooth muscle cells (PASMC) were obtained from Clonetics and maintained in endothelial cell basal medium-2 (EBM-2; Clonetics) and smooth muscle medium-2 (SmGM-2; Clonetics), respectively. Cells were cultured at 37° C. under a humidified atmosphere containing 5% CO2. For experimental purposes, cells were plated in 8 100-mm plastic dishes at 5,000 cells/cm^2 and were grown to confluence before overnight serum starvation. Cells were treated with vehicle or with a PCK3145 derivative diluted in 0.1 N NaOH, and stimulated with 50-100 ng/ml VEGF or PDGF, with 10 ng/ml of bFGF (basic fibroblast growth factor) or with 1 μM S1P (sphingosine-1-phosphate).
(§1) Immunoprecipitation and immunoblotting procedures. After treatment, cells were washed once with phosphate-buffered saline (PBS) containing 1 mM sodium orthovanadate and were incubated in the same medium for 1 h at 4° C. The cells were solubilized on ice in lysis buffer (150 mM NaCl, 10 mM Tris-HCl, pH 7.4, 1 mM EDTA, 1 mM EGTA, 0.5% Nonidet P-40, 1% Triton X-100) containing 1 mM sodium orthovanadate. The cells were then scraped from the culture dishes and the resulting lysates were clarified by centrifugation at 10,000 g for 10 min; Protein concentrations were determined using the micro bicinchoninic acid method (Pierce). For immunoprecipitation studies, lysates were clarified by a 1 h incubation at 4° C. with a mixture of Protein A/Protein G Sepharose beads. After removal of the Sepharose beads by low-speed centrifugation, identical amounts of protein (200 μg) from each sample were transferred to fresh tubes and incubated in lysis buffer overnight at 4° C. in the presence of 2 μg/ml of specific antibodies. Immunocomplexes were collected by incubating the mixture with 25 μl (50% suspension) of Protein A- (rabbit primary antibody) or Protein G- (mouse primary antibody) Sepharose beads, for 2 h. Nonspecifically-bound material was removed by washing the beads three times in 1 ml of lysis buffer containing 1 mM sodium orthovanadate, and bound material was solubilized in 25 μl of two-fold concentrated Laemmli sample buffer (125 mM Tris-HCl (pH 6.8), 20% glycerol, 4% SDS, 10% β-mercaptoethanol, and 0.00125% bromphenol blue), boiled 5 min, and resolved by SDS-PAGE. The proteins were transferred onto polyvinylidene difluoride (PVDF) membranes, blocked 1 h at room temperature with Tris-buffered saline/Tween 20 (147 mM NaCl, 20 mM Tris/HCl, pH 7.5, and 0.1% Tween 20) containing 2% bovine serum albumin and incubated overnight at 4° C. with primary antibody. […] The immunoreactive bands were quantified by scanning densitometry (Molecular Dynamics).
VEGF is a strong activator of ERKs (Extracellular-signal-Regulated protein Kinases) 1 and 2 via VEGF receptor 2. In order to test the ability of the PCK3145 derivative in potentially antagonizing VEGF-mediated ERK phosphorylation, serum-starved quiescent endothelial cells (HUVEC) were incubated with vehicle (phosphate-buffered saline (PBS) pH 7.4) or PCK3145 derivative (300 μg/ml) for 24 h and then stimulated with VEGF, bFGF (basic Fibroblast Growth Factor) or S1P (sphingosine-1-phosphate). Cells were washed with PBS containing NaF/Na3VO4 and incubated in the same medium buffer for 1 h at 4° C. The cells were scraped from the culture dishes and the resulting lysates clarified by centrifugation. Western blotting and immunodetection using anti-phosphoERK and anti-ERK antibodies was then performed.

VEGFR-2 = biological target: T1, VEGFR-2 (Homo sapiens, UniProt P35968); assay: VEGF-induced VEGFR-2 phosphorylation in HUVEC (immunoprecipitation, Western blot); type: cell-based
T1 construct: host or cells: HUVEC
T1 sequence (P35968 20-1356): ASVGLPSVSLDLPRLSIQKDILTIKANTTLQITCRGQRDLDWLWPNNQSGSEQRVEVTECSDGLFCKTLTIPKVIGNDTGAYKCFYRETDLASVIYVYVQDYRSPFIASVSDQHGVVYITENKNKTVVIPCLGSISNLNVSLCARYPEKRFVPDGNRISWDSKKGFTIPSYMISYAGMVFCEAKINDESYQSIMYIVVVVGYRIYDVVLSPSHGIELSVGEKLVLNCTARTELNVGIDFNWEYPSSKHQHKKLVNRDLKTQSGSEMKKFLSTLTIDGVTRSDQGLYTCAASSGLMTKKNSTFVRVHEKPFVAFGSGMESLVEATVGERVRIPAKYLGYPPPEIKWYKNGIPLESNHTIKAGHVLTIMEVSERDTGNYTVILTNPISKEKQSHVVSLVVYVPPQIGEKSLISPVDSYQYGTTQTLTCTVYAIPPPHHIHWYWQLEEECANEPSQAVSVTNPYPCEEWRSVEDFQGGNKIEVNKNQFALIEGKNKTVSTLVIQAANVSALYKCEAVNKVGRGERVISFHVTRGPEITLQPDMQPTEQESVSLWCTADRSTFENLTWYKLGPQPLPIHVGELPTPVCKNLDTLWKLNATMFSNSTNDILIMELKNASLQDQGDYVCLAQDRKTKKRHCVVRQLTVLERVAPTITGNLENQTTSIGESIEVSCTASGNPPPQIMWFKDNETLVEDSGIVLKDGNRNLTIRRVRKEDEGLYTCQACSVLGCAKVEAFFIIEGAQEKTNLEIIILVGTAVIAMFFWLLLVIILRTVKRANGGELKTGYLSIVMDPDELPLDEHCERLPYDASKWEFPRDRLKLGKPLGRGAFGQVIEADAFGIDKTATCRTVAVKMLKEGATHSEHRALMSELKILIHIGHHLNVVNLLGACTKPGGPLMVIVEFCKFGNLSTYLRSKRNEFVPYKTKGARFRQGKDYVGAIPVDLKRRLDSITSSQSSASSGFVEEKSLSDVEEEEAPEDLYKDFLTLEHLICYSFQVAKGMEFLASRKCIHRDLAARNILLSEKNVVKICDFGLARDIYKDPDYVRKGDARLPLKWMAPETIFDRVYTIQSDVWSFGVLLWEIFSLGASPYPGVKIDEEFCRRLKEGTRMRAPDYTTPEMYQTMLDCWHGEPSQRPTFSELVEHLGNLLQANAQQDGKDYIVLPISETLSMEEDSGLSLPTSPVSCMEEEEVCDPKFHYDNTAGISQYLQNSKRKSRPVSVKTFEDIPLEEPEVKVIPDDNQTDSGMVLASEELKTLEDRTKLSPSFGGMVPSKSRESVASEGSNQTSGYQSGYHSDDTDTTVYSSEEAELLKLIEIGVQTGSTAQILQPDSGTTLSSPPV
Description: as §1, with “SDS-PAGE.” for “SDS-PAGE. The proteins were transferred onto polyvinylidene difluoride (PVDF) membranes, blocked 1 h at room temperature with Tris-buffered saline/Tween 20 (147 mM NaCl, 20 mM Tris/HCl, pH 7.5, and 0.1% Tween 20) containing 2% bovine serum albumin and incubated overnight at 4° C. with primary antibody.”
The multifunctionality of VEGF at the cellular level results from its ability to initiate a diverse, complex and integrated network of signaling pathways via its major receptor, VEGFR-2. […] After each treatment, equal amounts of protein were immunoprecipitated with anti-VEGFR-2 polyclonal antibodies and analysed by Western blotting.

ERK [2] = assay: Intrinsic effect on ERK phosphorylation (Western blot); type: cell-based
Description: The induction of the MAPK pathway by the PCK3145 derivative is further confirmed by the rapid and transient induction of ERK phosphorylation between 5-10 minutes (FIG. 8B) and is shown to be dose-dependent (FIG. 8C). Finally, the effects of the PCK3145 derivative were also compared to those of a scrambled peptide.

HUVEC = HUVEC migration assay (modified Boyden chambers, gelatin-coated filters); type: cell-based, Human; settings: 300 μg/ml
Description: Migration Assays. Transwells filters (8-μm pore size; Costar, Cambridge, Mass.) were pre-coated with 0.5% gelatin/PBS for 24 h at 4° C. The transwells were then washed with PBS and assembled in 24-well plates. The upper chamber of each transwell was filled with 100 μl of HUVEC (1×10^6 cells/ml) and cells were allowed to adhere for 1 h. Cells were then treated for 2 h by adding 100 μl of 2-fold concentrated drug solution prepared in serum-free medium into the upper chamber and 600 μl of the drug solution into the lower chamber. Migration was initiated by adding VEGF (10 ng/ml), or S1P (1 μM) to the lower chamber. The plate was placed at 37° C. in 5% CO2/95% air for 4 h. Cells that had migrated to the lower surface of the filters were fixed with 10% formalin phosphate and stained with 0.1% Crystal Violet/20% (v/v) methanol. The migration was quantified using computer-assisted imaging and data are expressed as the average density of migrated cells per four fields (magnification×50).
Cells were plated onto gelatin-coated filters inserted in modified Boyden chemotactic chambers. The effect of PCK3145 on basal migration and on VEGF-induced migration was monitored by the number of cells that had migrated comparatively to untreated control cells. HUVEC were dislodged from the flasks by trypsinization, washed and resuspended in serum-free media. Cells were placed onto gelatin-coated filters inserted in chambers and incubated at 37° C., 5% CO2 for 30 min to allow adequate anchoring to the filters. The monolayers were then exposed to serum-free media containing PCK3145 (300 μg/ml) added within the upper and lower compartment of the chambers. After 2 h, VEGF (50 ng/ml) was added in the lower chamber as a chemoattractant. Cell migration was allowed to proceed for another 3 h. Filters were then fixed, stained, and the migrated cells quantified by microscopy as described in the Methods section. […] The effect of. PCK on S1P-induced HUVEC migration was also measured, but no inhibition was observed (not shown) in this particular assay.

proMMP-2 = assay: Gelatin zymography of HUVEC conditioned media; type: cell-based, Human; settings: HUVEC, serum-free media
Description: Zymography. Zymography is a technique generally used to analyze the activity of matrix metalloproteinases (MMPs) in biological samples. It involves the electrophoretic separation of proteins under denaturing (Sodium Dodecyl Sulfate (SDS)) but non-reducing conditions through a polyacrylamide gel containing gelatin (for example, 10% gel containing 1 mg/ml gelatin for MMP-9 and MMP-2 assays). The resolved proteins are re-natured by exchanging SDS with a non-ionic detergent such as Triton X-100 and the gel is incubated in an incubation buffer for activation of MMP-2 and MMP-9 (for example at 37° C. for 18 hrs). The gel is stained with Coomassie blue and the MMP-2 and MMP-9 bands may be visualized as clear bands against a blue background (i.e., the MMPs degrade the gelatin and are visualized as clear bands; pro MMP-2 is 68 kDa and pro-MMP-9 is 92 kDa). These bands can be quantified using densitometry. For example, prior to stimulation, quiescent HUVEC were serum-starved for 16 h in the presence or absence of PCK3145 or PD98059 and then stimulated with VEGF. The conditioned media were collected 24 h after stimulation, and clarified by centrifugation. Identical volume of conditioned media were mixed with non reducing Laemmli sample buffer and subjected to 7.5% SDS-polyacrylamide gels containing 1 mg/ml gelatin (Sigma). The gels were then incubated for 30 min at room temperature twice in 2.5% (v/v) Triton X-100 and rinsed five times in doubly distilled water. The gels were incubated at 37° C. for a further 18 h in 200 mM NaCl/5 mM CaCl2/0.02% (v/v) Brij-35/50 mM Tris/HCl buffer (pH 7.6), then stained with 0.1% Coomassie Brilliant Blue R-250, followed by destaining in 10% (v/v) acetic acid/30% (v/v) methanol in water. Gelatinolytic activity was detected as unstained bands on a blue background.
The effect of the PCK3145 derivative (SEQ ID NO.:7) on MMP extracellular levels was thus assessed by gelatin-zymography in the conditioned media of serum-starved HUVEC. After 16 hours of starvation, HUVEC were stimulated with VEGF in the presence or not of the PCK3145 derivative. […]

tumor cells = settings: U.S. Pat. No. 5,428,011; cited from earlier work
skeletal metastasis = settings: WO03/039576; cited from earlier work
FSH = settings: Thakur et al., 1981; cited from earlier work
FSH receptor = biological target: T2, FSH receptor (Homo sapiens, UniProt P23945); settings: testicular membrane preparations; Vijayalakshmi et al., 1981; cited from earlier work
T2 construct: host or cells: testicular membrane preparations
T2 sequence (P23945 18-695): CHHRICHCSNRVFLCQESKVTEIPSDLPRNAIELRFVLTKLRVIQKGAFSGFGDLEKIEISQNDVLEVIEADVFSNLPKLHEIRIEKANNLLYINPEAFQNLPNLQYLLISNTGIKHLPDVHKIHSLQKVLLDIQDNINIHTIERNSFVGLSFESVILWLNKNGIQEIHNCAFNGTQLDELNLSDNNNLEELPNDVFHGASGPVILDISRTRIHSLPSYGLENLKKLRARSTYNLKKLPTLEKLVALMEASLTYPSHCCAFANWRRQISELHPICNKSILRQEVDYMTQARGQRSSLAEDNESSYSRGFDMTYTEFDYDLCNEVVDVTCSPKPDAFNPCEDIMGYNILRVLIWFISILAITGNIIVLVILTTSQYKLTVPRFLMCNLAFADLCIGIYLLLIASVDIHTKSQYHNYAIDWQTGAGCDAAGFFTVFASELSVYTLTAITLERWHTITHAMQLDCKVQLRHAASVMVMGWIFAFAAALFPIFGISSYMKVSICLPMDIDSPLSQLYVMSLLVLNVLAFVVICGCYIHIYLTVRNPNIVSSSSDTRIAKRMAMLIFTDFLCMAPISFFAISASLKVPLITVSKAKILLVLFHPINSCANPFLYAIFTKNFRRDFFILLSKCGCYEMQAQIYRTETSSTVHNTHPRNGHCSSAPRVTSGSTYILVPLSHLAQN

Molecule: TC(Acm)ENC(Acm)TETQWC(Acm)ETDY [scrambled peptide, reference compound]
- VEGF-induced ERK phosphorylation, negative control (ERK [1]): lack of effect
- VEGF-induced VEGFR-2 phosphorylation, negative control (VEGFR-2): lack of effect
- induction of ERK phosphorylation (ERK [2]; compared to the PCK3145 derivative): unable to induce

Molecule: EWQTDNCETCTCYET (cysteine pairing not given here) [PCK3145, PSP94 fragment, 15 amino acids]
- basal cell migration (HUVEC): no significant effect
- VEGF-induced cell migration (HUVEC; VEGF 50 ng/ml): no significant effect

Molecule: COc1cccc(-c2cc(=O)c3ccccc3o2)c1N [PD98059, reference compound]
- VEGF-induced proMMP-2 extracellular levels (proMMP-2): significantly decreased
- induction of ERK phosphorylation by the PCK3145 derivative (ERK [2]; MAPK inhibitor added): antagonized

B1: PSP94: Prostate secretory protein of human seminal fluid, 10.7 kDa, 10 cysteine residues; wild type, 94 amino acids (protein, UniProt P08118 21-114, looked up)
Beta-microseminoprotein: SCYFIPNEGVPGDSTRKCMDLKGNKHPINSEWQTDNCETCTCYETEISCCTLVSTPVGYDKDNCQRIFKKEDCKYIVVEKKDPKKTCSVSEWII
- growth of tumor cells (tumor cells): inhibits
- development of skeletal metastasis (skeletal metastasis): reduces
- FSH levels (FSH): lower
- binding of FSH to its receptor (FSH receptor): interfere
